Assays:
yellow nutsedge = assay: Test C pre-/postemergence herbicide test; format: in vivo, Cyperus esculentus; conditions: for Nutsedge, Yellow plant response rating: 500 g ai/ha
In short: (§1)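 Visual ratings on a 0–100 scale (100 = complete control) made versus untreated controls after 12 to 14 greenhouse days. Test chemicals, formulated in surfactant-containing non-phytotoxic solvent, applied preemergence to planted seeds or postemergence to 1- to 4-leaf plants (2 to 18 cm).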

redroot pigweed = assay: Test A pre-/postemergence herbicide test; format: in vivo, Amaranthus retroflexus; conditions: for Plant response rating, Pigweed: Postemergence; for Pigweed plant response rating: Preemergence
In short: (§2)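 Visual injury scores on a 0–100 scale (100 = complete control) taken about ten days post-treatment in greenhouse against untreated controls; dash means no result. Treatments: preemergence soil spray and postemergence spray to runoff on one- to two-leaf plants 2 to 10 cm tall, surfactant-containing formulation.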

corn = assay: Test C pre-/postemergence herbicide test; format: in vivo, Zea mays; conditions: for Corn plant response rating: 500 g ai/ha
In short: as §1

velvetleaf [1] = assay: Test C pre-/postemergence herbicide test; format: in vivo, Abutilon theophrasti; conditions: for Velvetleaf plant response rating: 500 g ai/ha
In short: as §1

kochia = assay: Test C pre-/postemergence herbicide test; format: in vivo, Kochia scoparia; conditions: for Kochia plant response rating: 500 g ai/ha
In short: as §1

goosegrass = assay: Test C pre-/postemergence herbicide test; format: in vivo, Eleusine indica; conditions: for Goosegrass plant response rating: 500 g ai/ha
In short: as §1

woolly cupgrass = assay: Test C pre-/postemergence herbicide test; format: in vivo, Eriochloa villosa; conditions: for Cupgrass, Woolly plant response rating: 500 g ai/ha
In short: as §1

giant foxtail = assay: Test C pre-/postemergence herbicide test; format: in vivo, Setaria faberi; conditions: for Foxtail, Giant plant response rating: 500 g ai/ha
In short: as §1

soybean = assay: Test C pre-/postemergence herbicide test; format: in vivo, Glycine max; conditions: for Soybean plant response rating: 500 g ai/ha
In short: as §1

barnyardgrass = assay: Test C flooded paddy test; format: in vivo, Echinochloa crus-galli; conditions: for Plant response rating, Barnyardgrass: visual rating after 12 to 14 days
In short: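 Injury scored visually against controls on a 0 (no effect) to 100 (complete control) scale, 12 to 14 days after treatment in greenhouse. Flooded paddy plants treated at 2-leaf stage; postemergence plants at 1- to 4-leaf stage, 2 to 18 cm tall.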

velvetleaf [2] = assay: Test A pre-/postemergence herbicide test; format: in vivo, Abutilon theophrasti; conditions: for Velvetleaf plant response rating: Preemergence
In short: as §2

cocklebur = assay: Test C pre-/postemergence herbicide test; format: in vivo, Xanthium strumarium; conditions: for Cocklebur plant response rating: 500 g ai/ha
In short: as §1

morningglory = assay: Test C pre-/postemergence herbicide test; format: in vivo, Ipomoea coccinea; set-up: key to Plant response rating, Morningglory: 0 = no effect, 100 = complete control; conditions: for Morningglory plant response rating: 500 g ai/ha
In short: as §1

bermudagrass = assay: Test C pre-/postemergence herbicide test; format: in vivo, Cynodon dactylon; conditions: for Bermudagrass plant response rating: 500 g ai/ha
In short: as §1

[3] = 125 g ai/ha, scale 0 (no effect) to 100 (complete control), visual, 12 to 14 days, preemergence
[4] = 250 g ai/ha, scale 0 to 100 (0 no effect, 100 complete control), visual, 12 to 14 days, preemergence
[5] = Postemergence, 250 g ai/ha, scale 0 to 100, 0 no effect, 100 complete control
[6] = Preemergence, scale 0 to 100, 0 no effect, 100 complete control
[7] = postemergence, 62 g ai/ha, scale 0 to 100
[8] = 2000 g ai/ha, 0 to 100 scale, 0 no effect, 100 complete control
[9] = 500 g ai/ha, visual rating, 0 to 100 scale (0 no effect, 100 complete control)
[10] = Postemergence, 125 g ai/ha, scale 0 to 100, 0 no effect, 100 complete control

C#CCNC(=O)c1cccc(NC(=O)c2cc(C(C)(C)C)nn2CC)c1 [Compound 47]
30: Nutsedge, Yellow plant response rating (yellow nutsedge; Postemergence, scale 0 to 100) | Plant response rating, Nutsedge, Yellow (yellow nutsedge; [5])
20: Plant response rating, Nutsedge, Yellow (yellow nutsedge; [7]) | Soybean plant response rating (soybean; [6]) | Velvetleaf plant response rating (velvetleaf [2]; [9])
0: Plant response rating (0 = no effect, 100 = complete control), Nutsedge, Yellow (yellow nutsedge; 62 g ai/ha, preemergence) | Plant response rating, Nutsedge, Yellow (yellow nutsedge; [3]) | Plant response rating, Nutsedge, Yellow (yellow nutsedge; [4]) | Nutsedge, Yellow plant response rating (yellow nutsedge; [6]) | Plant response rating (0 = no effect, 100 = complete control), Corn (corn; 62 g ai/ha, preemergence) | Plant response rating, Corn (corn; [3]) | Plant response rating, Corn (corn; [4]) | Plant response rating (0 = no effect, 100 = complete control), Soybean (soybean; 62 g ai/ha, preemergence) | Plant response rating, Soybean (soybean; [3]) | Barnyardgrass plant response rating (barnyardgrass; 62 g ai/ha, scale 0 to 100 (0 no effect, 100 complete control)) | Barnyardgrass plant response rating (barnyardgrass; 125 g ai/ha, scale of 0 to 100, 0 is no effect, 100 is complete control) | Plant response rating (0 = no effect, 100 = complete control), Cocklebur (cocklebur; 62 g ai/ha, preemergence) | Plant response rating, Cocklebur (cocklebur; [3]) | Plant response rating, Cocklebur (cocklebur; [4]) | Plant response rating (0 = no effect, 100 = complete control), Morningglory (morningglory; 62 g ai/ha, preemergence) | Plant response rating, Morningglory (morningglory; [3])
10: Corn plant response rating (corn; [6]) | Plant response rating (0 = no effect, 100 = complete control), Kochia (kochia; 62 g ai/ha, preemergence) | Plant response rating, Kochia (kochia; [3]) | Plant response rating, Kochia (kochia; [4]) | Plant response rating (0 = no effect, 100 = complete control), Cupgrass, Woolly (woolly cupgrass; 62 g ai/ha, preemergence) | Plant response rating, Cupgrass, Woolly (woolly cupgrass; [3]) | Plant response rating, Soybean (soybean; [4])
90: Velvetleaf plant response rating (velvetleaf [1]; Postemergence, scale 0 to 100) | Foxtail, Giant plant response rating (giant foxtail; [6]) | Cocklebur plant response rating (cocklebur; Postemergence, scale 0 to 100) | Plant response rating, Morningglory (morningglory; [4]) | Morningglory plant response rating (morningglory; Postemergence, scale 0 to 100) | Morningglory plant response rating (morningglory; [6]) | Plant response rating (0 = no effect, 100 = complete control), Bermudagrass (bermudagrass; 62 g ai/ha, preemergence)
80: Corn plant response rating (corn; Postemergence, scale 0 to 100) | Plant response rating, Corn (corn; [5]) | Plant response rating, Velvetleaf (velvetleaf [1]; [5]) | Plant response rating, Velvetleaf (velvetleaf [1]; [7]) | Plant response rating (0 = no effect, 100 = complete control), Goosegrass (goosegrass; 62 g ai/ha, preemergence) | Goosegrass plant response rating (goosegrass; Postemergence, scale 0 to 100) | Cupgrass, Woolly plant response rating (woolly cupgrass; Postemergence, scale 0 to 100) | Cupgrass, Woolly plant response rating (woolly cupgrass; [6]) | Plant response rating, Foxtail, Giant (giant foxtail; [4])
60: Plant response rating, Goosegrass (goosegrass; [10]) | Plant response rating, Goosegrass (goosegrass; [5]) | Plant response rating, Cupgrass, Woolly (woolly cupgrass; [4]) | Plant response rating, Cupgrass, Woolly (woolly cupgrass; [10]) | Plant response rating, Cupgrass, Woolly (woolly cupgrass; [7]) | Plant response rating, Foxtail, Giant (giant foxtail; [10]) | Plant response rating, Foxtail, Giant (giant foxtail; [5]) | Plant response rating, Foxtail, Giant (giant foxtail; [7]) | Bermudagrass plant response rating (bermudagrass; Postemergence, scale 0 to 100) | Plant response rating, Bermudagrass (bermudagrass; [7])
95: Velvetleaf plant response rating (velvetleaf [2]; [8])
70: Plant response rating, Corn (corn; [10]) | Plant response rating, Corn (corn; [7]) | Plant response rating, Cupgrass, Woolly (woolly cupgrass; [5]) | Plant response rating, Foxtail, Giant (giant foxtail; [3]) | Foxtail, Giant plant response rating (giant foxtail; Postemergence, scale 0 to 100) | Plant response rating, Cocklebur (cocklebur; [10]) | Plant response rating, Cocklebur (cocklebur; [5]) | Plant response rating, Morningglory (morningglory; [5])
100: Plant response rating, Pigweed (redroot pigweed; 500 g ai/ha, 0 to 100 scale, 0 no effect, 100 complete control) | Plant response rating, Pigweed (redroot pigweed; [8]) | Pigweed plant response rating (redroot pigweed; [9]) | Pigweed plant response rating (redroot pigweed; [8]) | Plant response rating, Velvetleaf (velvetleaf [1]; [4]) | Velvetleaf plant response rating (velvetleaf [1]; [6]) | Kochia plant response rating (kochia; Postemergence, scale 0 to 100) | Plant response rating, Kochia (kochia; [10]) | Plant response rating, Kochia (kochia; [5]) | Plant response rating, Kochia (kochia; [7]) | Plant response rating, Goosegrass (goosegrass; [3]) | Plant response rating, Goosegrass (goosegrass; [4]) | Goosegrass plant response rating (goosegrass; [6]) | Soybean plant response rating (soybean; Postemergence, scale 0 to 100) | Plant response rating, Soybean (soybean; [5]) | Plant response rating, Soybean (soybean; [7]) | Cocklebur plant response rating (cocklebur; [6]) | Plant response rating, Bermudagrass (bermudagrass; [3]) | Plant response rating, Bermudagrass (bermudagrass; [4]) | Bermudagrass plant response rating (bermudagrass; [6])
40: Plant response rating (0 = no effect, 100 = complete control), Velvetleaf (velvetleaf [1]; 62 g ai/ha, preemergence) | Plant response rating, Velvetleaf (velvetleaf [1]; [3]) | Kochia plant response rating (kochia; [6]) | Plant response rating (0 = no effect, 100 = complete control), Foxtail, Giant (giant foxtail; 62 g ai/ha, preemergence) | Plant response rating, Barnyardgrass (barnyardgrass; 250 g ai/ha, scale 0 to 100 (0 no effect, 100 complete control)) | Plant response rating, Barnyardgrass (barnyardgrass; 500 g ai/ha, scale 0 to 100 (0 no effect, 100 complete control)) | Plant response rating, Velvetleaf (velvetleaf [2]; Postemergence, 2000 g ai/ha, 0 to 100 scale, 0 no effect, 100 complete control)
50: Plant response rating, Goosegrass (goosegrass; [7]) | Plant response rating, Cocklebur (cocklebur; [7]) | Plant response rating, Morningglory (morningglory; [7])

From US20060069132A1, “Azolecarboxamide herbicides” (priority 2004, published 2006)
